Assays:
Assay type in all cases: in vivo
[1] = test system: redroot pigweed (Amaranthus retroflexus, AMARE); assay: Pre-emerge test, greenhouse herbicide activity screening; details: rated 14 days after application, 0 = no damage, 100 = complete death
Summary of the method: (§1)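 Compounds in acetone were track-sprayed at 15-1000 g ai/ha (187 l/ha) on sandy loam pots: pre-emerge one day after seeding, post-emerge at 2-3 leaf stage with 0.25% v/v non-ionic surfactant. Phytotoxicity was rated 14 days later on a 0 (no damage) to 100 (complete death) scale.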

[2] = test system: field corn (Zea mays L., var. Dekalb 535, CORN); assay: Post-emerge test, crop safety; details: post-emerge, 14 days after application, rating scale 0-100
Summary of the method: (§2)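 Applied at 15–1000 g ai/ha from acetone in 187 l/ha spray volume. Post-emergence applications included 0.25% v/v non-ionic surfactant and reached plants sown 8–21 days before. Pre-emergence applications were incorporated by surface watering. Efficacy or crop damage was rated on a 0–100 scale after 14 days.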

[3] = test system: upland rice (Oryza sp., var. Tebonnet, RICE); assay: Post-emerge test, crop safety; details: post-emerge, 14 days after application, rating scale 0-100
Summary of the method: as §2

[4] = test system: barnyardgrass (Echinochloa crus-galli, ECHCG); assay: Pre-emerge test, greenhouse herbicide activity screening; details: rated 14 days after application, 0 = no damage, 100 = complete death
Summary of the method: as §2

[5] = test system: ivyleaf morningglory (Ipomoea hederacea, IPOHE); assay: as above; details: rated 14 days after application, 0 = no damage, 100 = complete death
Summary of the method: as §2

[6] = test system: large crabgrass (Digitaria sanguinalis, DIGSA); assay: as above; details: rated 14 days after application, 0 = no damage, 100 = complete death
Summary of the method: as §2

[7] = test system: green foxtail (Setaria viridis, SETVI); assay: as above; details: rated 14 days after application, 0 = no damage, 100 = complete death
Summary of the method: as §2

[8] = test system: sicklepod (Cassia obtusifolia, CASOB); assay: as above; details: rated 14 days after application, 0 = no damage, 100 = complete death
Summary of the method: as §2

[9] = test system: velvetleaf (Abutilon theophrasti, ABUTH); assay: as above; details: rated 14 days after application, 0 = no damage, 100 = complete death
Summary of the method: as §2

[10] = test system: common ragweed (Ambrosia artemisizfolia L., AMBEL); assay: as above; details: rated 14 days after application, 0 = no damage, 100 = complete death
Summary of the method: as §2

[11] = test system: johnsongrass (Sorghum halepense, SORHA); assay: as above; details: rated 14 days after application, 0 = no damage, 100 = complete death
Summary of the method: as §2

[12] = test system: lambsquarters (Chenopodium album, CHEAL); assay: as above; details: rated 14 days after application, 0 = no damage, 100 = complete death
Summary of the method: as §2

[13] = test system: barnyardgrass (Echinochloa crus-galli, ECHCG); assay: Post-emerge test, greenhouse herbicide activity screening; details: post-emerge, 14 days after application, rating scale 0-100
Summary of the method: as §1

[14] = test system: ivyleaf morningglory (Ipomoea hederacea, IPOHE); assay: as above; details: post-emerge, 14 days after application, rating scale 0-100
Summary of the method: as §1

[15] = test system: large crabgrass (Digitaria sanguinalis, DIGSA); assay: as above; details: post-emerge, 14 days after application, rating scale 0-100
Summary of the method: as §1

[16] = test system: green foxtail (Setaria viridis, SETVI); assay: as above; details: post-emerge, 14 days after application, rating scale 0-100
Summary of the method: as §1

[17] = test system: redroot pigweed (Amaranthus retroflexus, AMARE); assay: as above; details: post-emerge, 14 days after application, rating scale 0-100
Summary of the method: as §1

[18] = test system: sicklepod (Cassia obtusifolia, CASOB); assay: as above; details: post-emerge, 14 days after application, rating scale 0-100
Summary of the method: as §1

[19] = test system: velvetleaf (Abutilon theophrasti, ABUTH); assay: as above; details: post-emerge, 14 days after application, rating scale 0-100
Summary of the method: as §1

[20] = test system: common ragweed (Ambrosia artemisizfolia L., AMBEL); assay: as above; details: post-emerge, 14 days after application, rating scale 0-100
Summary of the method: as §1

[21] = test system: johnsongrass (Sorghum halepense, SORHA); assay: as above; details: post-emerge, 14 days after application, rating scale 0-100
Summary of the method: as §1

[22] = test system: lambsquarters (Chenopodium album, CHEAL); assay: as above; details: post-emerge, 14 days after application, rating scale 0-100
Summary of the method: as §1

[23] = test system: field corn (Zea mays L., var. Dekalb 535, CORN); assay: Pre-emerge test, crop safety; details: rated 14 days after application, 0 = no damage, 100 = complete death
Summary of the method: (§3)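 Rating: 0–100 visual injury, 14 DAA. Application: acetone, 187 l/ha, 15–1000 g ai/ha, flat-fan track sprayer with nozzle 40–45 cm above soil or canopy. Post-emerge runs used 0.25% v/v surfactant on 2–3 leaf plants.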

[24] = test system: upland rice (Oryza sp., var. Tebonnet, RICE); assay: Pre-emerge test, crop safety; details: rated 14 days after application, 0 = no damage, 100 = complete death
Summary of the method: as §3

COc1c(Cl)cc(F)c(-n2c(=O)cc(C(F)(F)F)n(C)c2=O)c1N(C(=O)c1ccc([N+](=O)[O-])cc1)C(=O)c1ccc([N+](=O)[O-])cc1 [2-69]
20: Pre-emerge Herbicidal Activity, phytotoxicity rating (0-100), DIGSA ([6]; 63 g ai/ha) | Pre-emerge phytotoxicity rating (0-100), crop damage, RICE ([24]; 63 g ai/ha)
0: phytotoxicity rating CORN ([2]; 63 g ai/ha) | phytotoxicity rating CORN ([2]; 250 g ai/ha) | phytotoxicity rating RICE ([3]; 63 g ai/ha) | phytotoxicity rating RICE ([3]; 250 g ai/ha) | Pre-emerge Herbicidal Activity, phytotoxicity rating (0-100), ECHCG ([4]; 63 g ai/ha) | Pre-emerge Herbicidal Activity, phytotoxicity rating (0-100), IPOHE ([5]; 63 g ai/ha) | Pre-emerge Herbicidal Activity, phytotoxicity rating (0-100), CASOB ([8]; 63 g ai/ha) | Pre-emerge Herbicidal Activity, phytotoxicity rating (0-100), SORHA ([11]; 63 g ai/ha) | phytotoxicity rating ECHCG ([13]; 63 g ai/ha) | phytotoxicity rating ECHCG ([13]; 250 g ai/ha) | phytotoxicity rating DIGSA ([15]; 63 g ai/ha) | phytotoxicity rating DIGSA ([15]; 250 g ai/ha) | phytotoxicity rating SETVI ([16]; 63 g ai/ha) | phytotoxicity rating SETVI ([16]; 250 g ai/ha) | phytotoxicity rating SORHA ([21]; 63 g ai/ha) | phytotoxicity rating SORHA ([21]; 250 g ai/ha) | Pre-emerge phytotoxicity rating (0-100), crop damage, CORN ([23]; 63 g ai/ha)
60: Pre-emerge Herbicidal Activity, phytotoxicity rating (0-100), AMBEL ([10]; 250 g ai/ha) | phytotoxicity rating CHEAL ([22]; 250 g ai/ha)
10: Pre-emerge Herbicidal Activity, phytotoxicity rating (0-100), ECHCG ([4]; 250 g ai/ha) | phytotoxicity rating CASOB ([18]; 63 g ai/ha) | Pre-emerge phytotoxicity rating (0-100), crop damage, CORN ([23]; 250 g ai/ha)
30: Pre-emerge Herbicidal Activity, phytotoxicity rating (0-100), SORHA ([11]; 250 g ai/ha) | phytotoxicity rating CASOB ([18]; 250 g ai/ha) | phytotoxicity rating AMBEL ([20]; 250 g ai/ha) | Pre-emerge phytotoxicity rating (0-100), crop damage, RICE ([24]; 250 g ai/ha)
50: Pre-emerge Herbicidal Activity, phytotoxicity rating (0-100), AMBEL ([10]; 63 g ai/ha) | phytotoxicity rating IPOHE ([14]; 63 g ai/ha) | phytotoxicity rating AMARE ([17]; 250 g ai/ha) | phytotoxicity rating CHEAL ([22]; 63 g ai/ha)
40: Pre-emerge Herbicidal Activity, phytotoxicity rating (0-100), IPOHE ([5]; 250 g ai/ha) | phytotoxicity rating IPOHE ([14]; 250 g ai/ha) | phytotoxicity rating AMARE ([17]; 63 g ai/ha) | phytotoxicity rating AMBEL ([20]; 63 g ai/ha)
80: Pre-emerge Herbicidal Activity, phytotoxicity rating (0-100), CASOB ([8]; 250 g ai/ha)
70: Pre-emerge Herbicidal Activity, phytotoxicity rating (0-100), SETVI ([7]; 63 g ai/ha)
100: Pre-emerge Herbicidal Activity, phytotoxicity rating (0-100), AMARE ([1]; 250 g ai/ha) | Pre-emerge Herbicidal Activity, phytotoxicity rating (0-100), ABUTH ([9]; 63 g ai/ha) | Pre-emerge Herbicidal Activity, phytotoxicity rating (0-100), ABUTH ([9]; 250 g ai/ha) | Pre-emerge Herbicidal Activity, phytotoxicity rating (0-100), CHEAL ([12]; 63 g ai/ha) | Pre-emerge Herbicidal Activity, phytotoxicity rating (0-100), CHEAL ([12]; 250 g ai/ha) | phytotoxicity rating ABUTH ([19]; 63 g ai/ha) | phytotoxicity rating ABUTH ([19]; 250 g ai/ha)
90: Pre-emerge Herbicidal Activity, phytotoxicity rating (0-100), AMARE ([1]; 63 g ai/ha) | Pre-emerge Herbicidal Activity, phytotoxicity rating (0-100), DIGSA ([6]; 250 g ai/ha)
95: Pre-emerge Herbicidal Activity, phytotoxicity rating (0-100), SETVI ([7]; 250 g ai/ha)

Source: US6355799B1, “Substituted benzene compounds, process for their preparation, and herbicidal and defoliant compositions containing them” (ISK Americas Incorporated, priority 1997, dated 2002)
